The values below come from ChEMBL document CHEMBL4825725, “Synthesis and interaction of terminal unsaturated chemical probes with Mycobacterium tuberculosis CYP124A1” (Bioorg Med Chem, 2021).

Active and inactive are the calls of the source. The rule behind the calls is not given here.

The nature of data set [1]: Binding affinity to Mycobacterium tuberculosis CYP124A1 by UV-visible spectrophotometric analysis. Conditions: read-out: Kd(app).
In data set [2] the test system is Mycobacterium tuberculosis. Kind of data set: Inhibition of Mycobacterium tuberculosis CYP124A1 at 50 uM incubated for 10 mins in presence of ferridoxin, ferridoxin-NADP+ reductase and NADPH by HPLC analysis.
Data set [3] in a line: Drug metabolism assessed as Mycobacterium tuberculosis CYP124A1-mediated drug oxidation at 50 to 250 uM in presence of ferridoxin, ferridoxin-NADP+ reductase and NADPH by GC-MS analysis. The data set is classed as ADME. The settings on record: recombinant enzyme, dose 50-250 µM.

As for `CC(C)=CCC/C(C)=C/CC/C(C)=C/CO` [FARNESOL], in data set [1], the Kd turned out to be 1040 nM.

In the case of `C=CCOC/C(C)=C/CC/C(C)=C/CC/C(C)=C/CO`, the inhibition entry in data set [2] is “inactive”. Moreover, the Kd in data set [1] was determined as 2900 nM. Moreover, the Drug metabolism result in data set [3] is “Metabolite_Notdetected”.

In the case of `C#CCOC/C(C)=C/CC/C(C)=C/CC/C(C)=C/CO`, the inhibition result in data set [2] was “inactive”. Further, the Kd in data set [1] worked out at 1500 nM. The Drug metabolism result in data set [3] is given as “Metabolite_Notdetected”.

In the case of `CC(C)CCCC(C)CCCC(C)CCCC(C)CC(=O)O` (centres undefined), the Kd in data set [1] is 220 nM.

`C#CCOC/C(C)=C/CC/C(C)=C/CO`: in data set [2], the inhibition result is “inactive”. Besides, the Kd in data set [1] is 14600 nM. In addition, in data set [3], the Drug metabolism result is reported as “Metabolite_Notdetected”.

As to `C=CCOC/C(C)=C/CC/C(C)=C/CO`, in data set [2], the inhibition result is “inactive”. The Kd in data set [1] turned out to be 49400 nM. The Drug metabolism result in data set [3] was “Metabolite_Notdetected”.
